Source: US11117899B2, “[1,2,4]triazolo[1,5-c]pyrimidine derivative as A2A receptor inhibitor” (MEDSHINE DISCOVERY INC., priority 2017, dated 2021)
Converted amounts (≈) assume the structure as drawn.

How the values were obtained:
[1] = target: T1, Human adenosine A2A receptor (Homo sapiens, UniProt P29274); assay: Human adenosine A2A receptor calcium flux assay; assay type: cell-based; settings: A2A stable CHO cell strain, antagonist mode against agonist NECA at EC80, FLIPR Fluo-4
T1 construct: host or cells: CHO
Description: Human adenosine A2A receptor calcium flux assay
A2A stable cell strain was constructed by Shanghai WuXi PharmaTech, and the host cell was CHO.
Fluo-4 Direct Kit (Invitrogen, Cat. No. F10471). After the fluorescent detection reagent (specifically binding to calcium ions and causing an increase in fluorescence signal) in the kit was incubated with the cells for a suitable period of time, the compound was added to stimulate the cells to cause changes in intracellular calcium flux, thereby causing changes in the fluorescent signal, which can reflect the strength of the agonistic or inhibitory activity of the compound.
F12+10% fetal bovine serum+geneticin 300 ug/ml+blasticidin 2 ug/ml Compound dilution buffer:
Hanks Balanced Salt Buffer (Invitrogen)+20 mM HEPES, configured before each use
The test compounds were dissolved in DMSO to prepare 10 mM stock solutions. The test compounds were diluted to 0.2 mM with DMSO, and the reference compound CGS-15943 was diluted to 0.015 mM with DMSO. Next, 10 points of three-fold serial dilutions were made with ECHO. 900 nl was transferred to the compound plate (Greiner-781280), and 30 ul of compound dilution buffer was added. The final starting concentration of the test compounds was 1 uM and CGS-15943 was 0.075 uM.
Cryopreserved A2A cells were resuscitated, and then resuspended in culture medium to 1×10^6 cells/ml. The suspension was seeded into 384-well polylysine-coated cell plates (Greiner-781946) at 20 μl/well and incubated overnight in a 5% CO2 incubator at 37° C.
The cell plate prepared the day before was taken out from the incubator, and 20 ul of 2× Fluo-4 Direct™ buffer was added to each well. The plate was incubated for 50 minutes in a 5% CO2 incubator at 37° C. and allowed to stand at room temperature for 10 minutes.
Dilution of agonist NECA: 10 points of three-fold serial dilutions were made with Echo for NECA from a starting concentration of 0.15 mM. 900 nL was then transferred to the corresponding compound plate; and then 30 μl of compound dilution buffer was added to the corresponding compound plate. The final starting concentration was 750 nM.
FLIPR instrument software was run. According to the programmed procedure, 10 ul of compound dilution buffer was added to the cell plate and the fluorescence signal was read. 10 ul of the agonist reference compound at the indicated concentration was then added to the cell plate and the fluorescent signal was read. After reading, the data was exported by the “Max-Min”, “Read 90 to Maximum allowed” method in the software, and the EC80 of the A2A cell line was calculated. The agonist was prepared at a concentration of 6× EC80. A 6× EC80 concentration of a reference compound agonist of the corresponding cells was prepared with a buffer solution, and added at 30 ul/well to the corresponding compound plate for use.
FLIPR instrument software was run. According to the programmed procedure, 10 μl of the test compounds and reference compound at an indicated concentration was added to the cell plate and the fluorescence signal was read. 10 ul of the reference compound agonist at a concentration of 6× EC80 was then added to the cell plate and the fluorescent signal was read. For the agonist detection of the compounds, the data was exported by the “Max-Min”, “Read 1 to 90” method in the software. For the antagonist detection of the compound, the data was exported by the “Max-Min”, “Read 90 to Maximum allowed” method in the software. Data were analyzed by GraphPad Prism 5.0 and the IC50 values of the test compounds were calculated.

[2] = Determination of kinetic solubility; assay type: physicochemical; settings: aqueous buffer, kinetic from dmso stock, 50 mM phosphate buffer pH 7.4, 24 hours, room temperature, 200 μM maximum
Description: The test compounds were dissolved in DMSO to prepare 10 mmol/L stock solutions. The stock solutions were diluted with 50% ACN/50 mM phosphate buffer (pH 7.4) to prepare standard solutions (1 μM, 20 μM, […]).
490 μL of dissolution medium (50 mM phosphate buffer solution, pH 7.4) was pipetted into a 96-well plate with a single-well volume of 2 mL using a pipette (Eppendorf Research Inc.). 10 μL of the stock solution of each test compounds and QC sample (10 mmol/L DMSO stock solution) were added to the dissolution medium, respectively, and the sample plate was sealed with a sealing film. The final concentration of the test compounds and DMSO in the sample solution were 200 μM and 2%, respectively. The mixture was shaken at 600 rpm for 24 hours at room temperature. 200 μL of the sample solution was transferred into a 96-well filter plate using a pipette and filtered with suction. The filtrate and the standard solution were detected by high performance liquid chromatography (HPLC-DAD). The concentration of the test compounds in the filtrate was calculated by an external standard method, which was the kinetic solubility of the compounds.

[3] = Pharmacokinetics in female Balb/c mice; assay type: in vivo; settings: mouse, plasma, single intravenous injection / single oral administration; for bioavailability: read-out: Bioavailability F; for AUC: read-out: Concentration integral AUC; for half-life: read-out: Half-life T1/2 (converted)
Description: Objective: To test the pharmacokinetics of compounds in female Balb/c mice in vivo
Balb/c mice (female, 15-30 g, 7-9 weeks old, Shanghai Lingchang)
The pharmacokinetics profile of the compounds in rodent after intravenous injection and oral administrations was tested using a standard protocol. In the assay, the candidate compound was formulated into a clear solution and administrated to the mice through a single intravenous injection, and formulated into a uniform suspension and administrated to the mice through a single oral administration. […] The whole blood samples were collected within 24 hours, centrifuged at 3000 g at 4° C. for 15 minutes, and plasma samples were obtained by separating the supernatant. 20 times volume of acetonitrile solution containing an internal standard was added to precipitate proteins. After centrifugation, the supernatant was collected, to which an equal volume of water was added, and further centrifuged to collect the supernatant. The LC-MS/MS method was used to quantitatively analyze the plasma concentration, and the pharmacokinetics parameters, such as peak concentration, peak time, clearance rate, half-life, area under the curve, and bioavailability were calculated.

T1 sequence (P29274 whole entry): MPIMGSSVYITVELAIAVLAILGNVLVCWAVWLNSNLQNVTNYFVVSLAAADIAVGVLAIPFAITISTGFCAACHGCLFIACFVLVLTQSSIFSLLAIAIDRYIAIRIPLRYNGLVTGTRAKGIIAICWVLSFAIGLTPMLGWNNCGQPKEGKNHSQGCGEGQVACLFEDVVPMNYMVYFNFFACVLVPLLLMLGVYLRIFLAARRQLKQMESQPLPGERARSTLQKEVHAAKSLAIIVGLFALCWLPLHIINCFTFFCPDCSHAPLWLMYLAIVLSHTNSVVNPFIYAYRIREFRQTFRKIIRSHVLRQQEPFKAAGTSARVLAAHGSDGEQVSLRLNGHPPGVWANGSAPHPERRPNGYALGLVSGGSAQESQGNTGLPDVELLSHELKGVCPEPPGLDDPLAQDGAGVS

Row | IC50 [1] | solubility at 24 h [2] | clearance [3] | bioavailability [3] | AUC [3] | half-life [3] | SMILES
1 | 0.32 nM | 92.5 µM (≈ 37.6 µg/mL) | – | – | – | – | Cc1cc(-c2c(-c3cccc(F)c3F)nc(N)n3ncnc23)cc(C(F)(F)F)n1 [Example A-3]
2 | 1.36 nM | 168 µM (≈ 70.3 µg/mL) | 0.451 L/h/kg | 82.9% | 43.9 µM·h | 1.99 h | Cc1cc(-c2c(-c3ccc(F)cc3)nc(N)n3nc(CO)nc23)cc(C(F)(F)F)n1 [Example C-43]
3 | 0.65 nM | > 200 µM | 1.08 L/h/kg | 95.2% | 22 µM·h | 1.2 h | Cc1cc(-c2c(-c3ccccc3)nc(N)n3nc(CO)nc23)cc(C(F)(F)F)n1 [Example C-33]
4 | 1.08 nM | 160 µM (≈ 64.1 µg/mL) | – | – | – | – | COc1ccccc1-c1nc(N)n2ncnc2c1-c1cc(C)nc(C(F)(F)F)c1 [Example A-4]
5 | 0.23 nM | 185 µM (≈ 68.5 µg/mL) | 3.07 L/h/kg | 41.1% | 3.33 µM·h | 0.47 h | Cc1cc(-c2c(-c3ccccc3)nc(N)n3ncnc23)cc(C(F)(F)F)n1 [Example A-1]
6 | 1.55 nM | 54.5 µM (≈ 21.3 µg/mL) | – | – | – | – | Nc1nc(-c2ccccc2)c(-c2cc(Cl)nc(C(F)(F)F)c2)c2ncnn12 [Example B-28]
7 | – | 29.2 µM (≈ 9.67 µg/mL) | 12.5 L/h/kg | 21.6% | 0.501 µM·h | 0.28 h | Cc1cc(-c2nnc(N)nc2-c2ccccc2)cc(C(F)(F)F)n1 [Compound A, reference compound]
8 | 0.28 nM | 56 µM (≈ 18.9 µg/mL) | 2.66 L/h/kg | 17.4% | 1.73 µM·h | 0.25 h | Cc1cc(-c2c(-c3ccccc3)nc(N)n3ncnc23)cc(Cl)n1 [Example B-31]
9 | 0.28 nM | 197 µM (≈ 62.3 µg/mL) | 1.44 L/h/kg | 91% | 19.6 µM·h | 0.33 h | Cc1cc(-c2c(-c3ccccc3)nc(N)n3ncnc23)cc(C)n1 [Example B-5]
10 | 1.72 nM | 78.9 µM (≈ 34.6 µg/mL) | 0.15 L/h/kg | 123% | 157 µM·h | 7.26 h | Nc1nc(-c2ccc(F)cc2)c(-c2cc(Cl)nc(C(F)(F)F)c2)c2nc(CO)nn12 [Example C-58]
11 | 3.08 nM | 172 µM (≈ 69.2 µg/mL) | 0.0324 L/h/kg | 44% | 20.1 µM·h | 1.92 h | Cc1cc(-c2c(-c3ccc(F)cc3)nc(N)n3nc(C)nc23)cc(C(F)(F)F)n1 [Example C-46]
12 | 0.4 nM | 194 µM (≈ 67.2 µg/mL) | 2.32 L/h/kg | 70.7% | 8.79 µM·h | 0.92 h | Cc1cc(-c2c(-c3ccccc3)nc(N)n3nc(CO)nc23)cc(C)n1 [Example C-19]
13 | 4.49 nM | – | 0.236 L/h/kg | 69.3% | 71.7 µM·h | 3.2 h | Cc1cc(-c2c(-c3ccc(F)cc3)nc(N)n3nc(C(F)(F)F)nc23)cc(C)n1 [Example C-57]
